Assay results: US9334263B2, “Compositions useful for treating disorders related to kit” (BLUEPRINT MEDICINES CORPORATION, priority 2013, dated 2016)
Blank lines part the entries; values can stand above or below the molecule they belong to.

How the values were obtained:
[1] = target: T1, Kit D816V (HMC1.2 cells, Kit V560G and D816V) (Homo sapiens, UniProt P10721, D816V/V560G); assay: HMC1.2 autophosphorylation assay (AlphaLISA, phospho-Y719 c-Kit); format: cell-based; details: Kit autophosphorylation at tyrosine 719, 90 minutes, read-out: Cellular Activity
T1 construct: endogenous in cells; host or cells: HMC1.2 cells
Experimental: HMC1.2 Autophosphorylation Assay:
10,000 HMC1.2 cells were incubated in 22 ul culture media (phenol-red free IMDM, no serum) in each well of a 384-well plate and serum starved overnight in a tissue culture incubator (5% CO2, 37° C.). A 10-point dose concentration series of compound (25 uM-95.4 pM) were then added to the cells in a volume of 3.1 ul to each well (0.25% DMSO final concentration). After 90 minutes, 6 ul of 5× AlphaLISA Lysis Buffer (Perkin Elmer) supplemented with a protease and phosphatase inhibitor cocktail (Cell Signaling Technologies) was added to each well and shaken at 450 rpm for 15 minutes at 4° C. 10 ul of phospho-Y719 c-Kit and total c-Kit antibodies (15 nM final concentration, Cell Signaling Technologies) and 50 ug/ml AlphaLISA rabbit acceptor beads (Perkin Elmer) were added to each well and shaken at 300 rpm at room temperature for 2 hours. 10 ul of 100 ug/ml streptavidin donor beads (Perkin Elmer) were added to each well, blocked from light with aluminum adhesive and shaken at 300 rpm at room temperature for 2 hours. Fluorescence signal was obtained on Envision (Perkin Elmer) by AlphaScreen 384 well HTS protocol.
This cell line contains Kit mutated at positions V560G and D816V resulting in constitutive activation of the kinase. The following compounds were tested in an assay to measure direct inhibition of Kit D816V kinase activity by assaying Kit autophosphorylation at tyrosine 719 on the Kit protein.

D816V Kit = target: T2, D816V Kit (Homo sapiens, UniProt P10721, D816V); assay: Kit D816V assay at Km (Caliper electrophoretic mobility shift); format: biochemical; details: 15 uM ATP, 25 C, 90 minutes
T2 construct: purchased Carna Bioscience 08-156
Experimental: In order to assess the activity of chemical compounds against the relevant kinase of interest, the Caliper LifeSciences electrophoretic mobility shift technology platform is used. Fluorescently labeled substrate peptide is incubated in the presence of kinase and ATP so that a […] proportion of the peptide is phosphorylated. At the end of the reaction, the mix of phosphorylated (product) and non-phosphorylated (substrate) peptides are passed through the microfluidic system of the Caliper EZ Reader 2, under an applied potential difference. The presence of the phosphate group on the product peptide provides a difference in mass and charge between those of the substrate peptide, resulting in a separation of the substrate and product pools in the sample. As the pools pass a LEDS within the instrument, these pools are detected and resolved as separate peaks. The ratio between these peaks therefore reflects the activity of the chemical matter at that concentration in that well, under those conditions.
The reaction was stopped by the addition of 70 ul of Stop buffer (100 mM HEPES pH 7.5, 0.015% Brij 35, 35 mM EDTA and 0.2% of Coating Reagent 3 (Caliper Lifesciences)). The plate was then read on a Caliper EZReader 2 (protocol settings: −1.9 psi, upstream voltage −700, downstream voltage −3000, post sample sip 35 s).

T1 sequence (P10721 26-976 V560G/D816V): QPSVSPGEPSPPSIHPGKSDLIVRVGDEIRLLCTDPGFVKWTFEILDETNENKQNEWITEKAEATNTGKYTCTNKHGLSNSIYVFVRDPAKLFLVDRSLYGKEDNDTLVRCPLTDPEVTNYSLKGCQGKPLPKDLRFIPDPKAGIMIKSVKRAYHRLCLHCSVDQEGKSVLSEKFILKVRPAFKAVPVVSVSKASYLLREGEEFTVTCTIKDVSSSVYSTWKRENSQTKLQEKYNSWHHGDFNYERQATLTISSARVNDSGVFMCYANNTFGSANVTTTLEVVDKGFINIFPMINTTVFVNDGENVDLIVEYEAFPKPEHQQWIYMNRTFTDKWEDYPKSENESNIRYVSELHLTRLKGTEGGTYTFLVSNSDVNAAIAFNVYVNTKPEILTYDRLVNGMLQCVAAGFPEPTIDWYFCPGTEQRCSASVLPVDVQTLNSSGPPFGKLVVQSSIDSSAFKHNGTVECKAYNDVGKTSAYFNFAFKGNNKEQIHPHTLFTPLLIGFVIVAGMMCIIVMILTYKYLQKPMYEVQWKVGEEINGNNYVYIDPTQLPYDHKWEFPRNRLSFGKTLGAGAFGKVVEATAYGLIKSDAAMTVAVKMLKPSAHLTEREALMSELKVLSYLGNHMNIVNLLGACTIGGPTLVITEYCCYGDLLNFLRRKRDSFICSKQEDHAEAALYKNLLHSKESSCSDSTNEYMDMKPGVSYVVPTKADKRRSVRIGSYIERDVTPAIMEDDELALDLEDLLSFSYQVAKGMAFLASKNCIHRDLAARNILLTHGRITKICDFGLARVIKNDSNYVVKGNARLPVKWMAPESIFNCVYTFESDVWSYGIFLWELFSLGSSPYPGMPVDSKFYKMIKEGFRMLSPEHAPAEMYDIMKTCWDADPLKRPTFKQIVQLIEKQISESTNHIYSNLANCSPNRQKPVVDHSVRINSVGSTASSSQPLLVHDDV
T2 sequence (P10721 26-976 D816V): as the sequence (P10721 26-976 V560G/D816V) above, with G535V counted along it

SMILES: O[C@@H](c1ccccc1)c1cnc(N2CCN(c3ncnc(Nc4cnn(CC5CNCCO5)c4)n3)CC2)nc1 (stereo partly drawn) [Compound 189, (S)-(2-(4-(4-(1-(morpholin-2-ylmethyl)-1H-pyrazol-4-ylamino)-1,3,5-triazin-2-yl)piperazin-1-yl)pyrimidin-5-yl)(phenyl)methanol]
IC50 [1]: 10 to 100 nM
IC50 (D816V Kit): < 1 nM

SMILES: c1ccc(OCc2cnc(N3CCN(c4ncnc(Nc5cnn(C[C@@H]6CNCCO6)c5)n4)CC3)nc2)cc1 [Compound 190]
IC50 [1]: 10 to 100 nM
IC50 (D816V Kit): 1.01 to 10 nM

SMILES: O=S1(=O)Cc2ccc(Nc3ncnc(N4CCN(c5ncc(Cc6ccccc6)cn5)CC4)n3)cc2CN1 [Compound 192]
IC50 [1]: < 10 nM
IC50 (D816V Kit): < 1 nM

SMILES: CC(C)(O)c1ccc(Nc2ncnc(N3CCN(c4ncc([C@@](C)(N)c5ccc(F)cc5)cn4)CC3)n2)cc1 [Compound 193]
IC50 [1]: < 10 nM
IC50 (D816V Kit): < 1 nM

SMILES: C[C@](N)(c1ccc(F)cc1)c1cnc(N2CCN(c3ncnc(Nc4ccc([C@@H](O)CO)cc4)n3)CC2)nc1 [Compound 195]
IC50 [1]: < 10 nM
IC50 (D816V Kit): < 1 nM

SMILES: Fc1ccc(Cc2cnc(N3CCN(c4ncnc(Nc5cnn(C[C@@H]6CNCCO6)c5)n4)CC3)nc2)cc1 [Compound 196]
IC50 [1]: 10 to 100 nM
IC50 (D816V Kit): < 1 nM

SMILES: Fc1cccc(Cc2cnc(N3CCN(c4ncnc(Nc5cnn(C[C@@H]6CNCCO6)c5)n4)CC3)nc2)c1 [Compound 197]
IC50 [1]: 100 to 1000 nM
IC50 (D816V Kit): 1.01 to 10 nM

SMILES: Fc1ccccc1Cc1cnc(N2CCN(c3ncnc(Nc4cnn(C[C@@H]5CNCCO5)c4)n3)CC2)cn1 [Compound 198]
IC50 [1]: < 10 nM
IC50 (D816V Kit): < 1 nM

SMILES: c1ccc(Sc2cnc(N3CCN(c4ncnc(Nc5cnn(C[C@@H]6CNCCO6)c5)n4)CC3)nc2)cc1 [Compound 199]
IC50 [1]: 10 to 100 nM
IC50 (D816V Kit): 1.01 to 10 nM

SMILES: Fc1ccc(Nc2cnc(N3CCN(c4ncnc(Nc5cnn(C[C@@H]6CNCCO6)c5)n4)CC3)nc2)cc1 [Compound 200]
IC50 [1]: 100 to 1000 nM
IC50 (D816V Kit): 1.01 to 10 nM

SMILES: CC(C)(O)Cn1cc(Nc2ncnc(N3CCN(c4ncc(C(C)(C)c5ccc(F)cc5)cn4)CC3)n2)cn1 [Compound 201]
IC50 [1]: 10 to 100 nM
IC50 (D816V Kit): < 1 nM

SMILES: Fc1ccc(Oc2cnc(N3CCN(c4ncnc(Nc5cnn(C[C@@H]6CNCCO6)c5)n4)CC3)nc2)cc1 [Compound 202]
IC50 [1]: 100 to 1000 nM
IC50 (D816V Kit): 1.01 to 10 nM

SMILES: Fc1ccccc1Oc1cnc(N2CCN(c3ncnc(Nc4cnn(C[C@@H]5CNCCO5)c4)n3)CC2)nc1 [Compound 203, (S)-4-(4-(5-(2-fluorophenoxyl)pyrimidin-2-yl)piperazin-1-yl)-N-(1-(morpholin-2-ylmethyl)-1H-pyrazol-4-yl)-1,3,5-triazin-2-amine]
IC50 [1]: 10 to 100 nM
IC50 (D816V Kit): 1.01 to 10 nM

SMILES: Fc1cccc(Oc2cnc(N3CCN(c4ncnc(Nc5cnn(C[C@@H]6CNCCO6)c5)n4)CC3)nc2)c1 [Compound 204]
IC50 [1]: 100 to 1000 nM
IC50 (D816V Kit): 1.01 to 10 nM

SMILES: C[C@H](O)CNc1ccc(Nc2ncnc(N3CCN(c4ncc(Sc5ccccc5F)cn4)CC3)n2)cc1 [Compound 205]
IC50 [1]: 10 to 100 nM
IC50 (D816V Kit): 1.01 to 10 nM

SMILES: CC(C)(O)Cn1cc(Nc2ncnc(N3CCN(c4ncc([C@](C)(O)c5ccc(F)cc5)cn4)CC3)n2)cn1 [Compound 207]
IC50 [1]: 10 to 100 nM
IC50 (D816V Kit): < 1 nM

SMILES: CC(C)(O)Cn1cc(Nc2ncnc(N3CCN(c4ncc([C@@](C)(O)c5ccc(F)cc5)cn4)CC3)n2)cn1 [Compound 208]
IC50 [1]: < 10 nM
IC50 (D816V Kit): < 1 nM

SMILES: Cc1nn(CC(C)(C)O)cc1Nc1ncnc(N2CCN(c3ncc(Sc4ccccc4F)cn3)CC2)n1 [Compound 209]
IC50 [1]: 10 to 100 nM
IC50 (D816V Kit): < 1 nM

SMILES: Cc1c(Nc2ncnc(N3CCN(c4ncc(Sc5ccccc5F)cn4)CC3)n2)cnn1CC(C)(C)O [Compound 210]
IC50 [1]: 10 to 100 nM
IC50 (D816V Kit): < 1 nM

SMILES: O=C1CCc2ccc(Nc3ncnc(N4CCN(c5ncc(Cc6ccccc6)cn5)C(CCO)C4)n3)cc2N1 (stereo not shown) [Compound 213]
IC50 [1]: 10 to 100 nM
IC50 (D816V Kit): 1.01 to 10 nM

SMILES: C[C@@H](O)CN1CCc2ccc(Nc3ncnc(N4CCN(c5ncc(Cc6ccccc6)cn5)CC4)n3)cc2C1 [Compound 220]
IC50 [1]: 10 to 100 nM
IC50 (D816V Kit): < 1 nM

SMILES: C[C@H](O)CN1CCc2ccc(Nc3ncnc(N4CCN(c5ncc(Cc6ccccc6)cn5)CC4)n3)cc2C1 [Compound 221]
IC50 [1]: < 10 nM
IC50 (D816V Kit): < 1 nM

The remaining lines, values ahead:

IC50 [1]: 10 to 100 nM
IC50 (D816V Kit): 1.01 to 10 nM
SMILES: C[C@@H]1CN(c2ncnc(Nc3ccc(N4CCC[C@@H](O)C4)cc3)n2)CCN1c1ncc(Cc2ccccc2)cn1 [Compound 222]

IC50 [1]: 10 to 100 nM
IC50 (D816V Kit): 1.01 to 10 nM
SMILES: C[C@H](c1ccccc1)c1cnc(N2CCN(c3ncnc(Nc4ccc(N5CCC[C@@H](O)C5)cc4)n3)CC2)nc1 [Compound 223]

IC50 [1]: 10 to 100 nM
IC50 (D816V Kit): < 1 nM
SMILES: C[C@@H](c1ccccc1)c1cnc(N2CCN(c3ncnc(Nc4ccc(N5CCC[C@@H](O)C5)cc4)n3)CC2)nc1 [Compound 224]

IC50 [1]: 10 to 100 nM
IC50 (D816V Kit): 1.01 to 10 nM
SMILES: CC1(O)CCCN(c2ccc(Nc3ncnc(N4CCN(c5ncc(Cc6ccccc6)cn5)CC4)n3)cc2)C1 (stereo not shown) [Compound 225]

IC50 [1]: 10 to 100 nM
IC50 (D816V Kit): 1.01 to 10 nM
SMILES: C[C@@]1(O)CCCN(c2ccc(Nc3ncnc(N4CCN(c5ncc(Cc6ccccc6)cn5)CC4)n3)cc2)C1 [Compound 227]

IC50 [1]: 100 to 1000 nM
IC50 (D816V Kit): 1.01 to 10 nM
SMILES: Cc1cc(N2CCNCC2)ccc1Nc1ncnc(N2CCN(c3ncc(Cc4ccccc4)c(N)n3)CC2)n1 [Compound 228]

IC50 [1]: < 10 nM
IC50 (D816V Kit): < 1 nM
SMILES: Nc1nc(N2CCN(c3ncnc(Nc4ccc5c(c4)CN(CCO)CC5)n3)CC2)ncc1Cc1ccccc1 [Compound 229]

IC50 [1]: 1000 to 10000 nM
IC50 (D816V Kit): 1.01 to 10 nM
SMILES: COc1cc(N2CCNCC2)ccc1Nc1ncnc(N2CCN(c3ncc(Cc4ccccc4)cn3)CC2)n1 [Compound 230]

IC50 [1]: 10 to 100 nM
IC50 (D816V Kit): < 1 nM
SMILES: Nc1nc(N2CCN(c3ncnc(Nc4ccc(N5CCC[C@@H](O)C5)cc4)n3)CC2)ncc1Cc1ccccc1 [Compound 231]

IC50 [1]: 10 to 100 nM
IC50 (D816V Kit): < 1 nM
SMILES: O[C@@H]1CCN(c2ccc(Nc3ncnc(N4CCN(c5ncc(Cc6ccccc6)cn5)CC4)n3)cc2)C[C@@H]1O [Compound 232]

IC50 [1]: 10 to 100 nM
IC50 (D816V Kit): 1.01 to 10 nM
SMILES: c1ccc(C2(c3cnc(N4CCN(c5ncnc(Nc6cnn(C[C@@H]7CNCCO7)c6)n5)CC4)nc3)CC2)cc1 [Compound 233]

IC50 [1]: 10 to 100 nM
IC50 (D816V Kit): 1.01 to 10 nM
SMILES: C[C@@](O)(c1ccccc1)c1cnc(N2CCN(c3ncnc(Nc4ccc(N5CCOCC5)cc4)n3)CC2)nc1 [Compound 234]

IC50 [1]: < 10 nM
IC50 (D816V Kit): < 1 nM
SMILES: C[C@](O)(c1ccccc1)c1cnc(N2CCN(c3ncnc(Nc4ccc(N5CCOCC5)cc4)n3)CC2)nc1 [Compound 235]

IC50 [1]: < 10 nM
IC50 (D816V Kit): < 1 nM
SMILES: OC1(c2ccc(Nc3ncnc(N4CCN(c5ncc(Cc6ccccc6)cn5)CC4)n3)cc2)CCCNC1 (stereo not shown) [Compound 236]

IC50 [1]: 100 to 1000 nM
IC50 (D816V Kit): 1.01 to 10 nM
SMILES: Fc1cc(O[C@H]2CCCNC2)ccc1Nc1ncnc(N2CCN(c3ncc(Cc4ccccc4)cn3)CC2)n1 [Compound 238]

IC50 [1]: < 10 nM
IC50 (D816V Kit): 1.01 to 10 nM
SMILES: O[C@H]1CCCN(c2ccc(Nc3ncnc(N4CCN(c5ncc(Cc6ccc(F)cc6)cn5)CC4)n3)cc2)C1 [Compound 240]

IC50 [1]: 10 to 100 nM
IC50 (D816V Kit): 1.01 to 10 nM
SMILES: CCN1CCO[C@H](Cn2cc(Nc3ncnc(N4CCN(c5ncc(Cc6ccccc6)cn5)CC4)n3)cn2)C1 [Compound 241]

IC50 [1]: 10 to 100 nM
IC50 (D816V Kit): < 1 nM
SMILES: Cc1c(Nc2ncnc(N3CCN(c4ncc(Cc5ccccc5)cn4)[C@H](C)C3)n2)cnn1C[C@@H]1CNCCO1 [Compound 242]

IC50 [1]: 10 to 100 nM
IC50 (D816V Kit): 1.01 to 10 nM
SMILES: Cc1c(Nc2ncnc(N3CCN(c4ncc(C(C)c5ccccc5)cn4)CC3)n2)cnn1C[C@@H]1CNCCO1 (stereo partly shown) [Compound 243]

IC50 [1]: 10 to 100 nM
IC50 (D816V Kit): < 1 nM
SMILES: CC(C)(c1ccccc1)c1cnc(N2CCN(c3ncnc(Nc4cnn(C[C@@H]5CNCCO5)c4)n3)CC2)nc1 [Compound 244]

IC50 [1]: 10 to 100 nM
IC50 (D816V Kit): < 1 nM
SMILES: Cc1c(Nc2ncnc(N3CCN(c4ncc(Cc5ccccc5)c(N)n4)CC3)n2)cnn1C[C@@H]1CNCCO1 [Compound 245]

IC50 [1]: 1000 to 10000 nM
IC50 (D816V Kit): 1.01 to 10 nM
SMILES: COc1nc(N2CCN(c3ncnc(Nc4cnn(C[C@@H]5CNCCO5)c4)n3)CC2)ncc1Cc1ccccc1 [Compound 246]
